Where two headings read alike, the source gives them in different places.

Assay [1] relates to Gb3-expressing HT-29 cells. The assay is described as follows: cells. It is filed as cell-based.
The test system of assay [2] is periampular tumors in APC^1638N mice. To be noted: mouse, in vivo.
Assay [3] concerns the target mitochondrial peripheral benzodiazepine receptor, mPBR (Homo sapiens, UniProt P30536). To be noted: cited from earlier work.

mitochondrial peripheral benzodiazepine receptor, mPBR, sequence (P30536 whole entry): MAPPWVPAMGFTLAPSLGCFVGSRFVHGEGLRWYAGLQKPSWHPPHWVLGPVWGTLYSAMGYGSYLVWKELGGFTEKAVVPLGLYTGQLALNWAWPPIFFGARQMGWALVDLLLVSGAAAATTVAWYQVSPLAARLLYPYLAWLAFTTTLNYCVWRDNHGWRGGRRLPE

The term IC50 denotes the concentration at which inhibition is half-maximal. `CCc1c2c(nc3ccc(OC(=O)N4CCC(N5CCCCC5)CC4)cc13)-c1cc3c(c(=O)n1C2)COC(=O)[C@]3(O)CC` [CPT11]: in assay [1] (Homo sapiens, HT-29), the IC50 stood at 70 µM. For the same molecule, in assay [2], the “inflammatory reaction in the periampular region (pathology)” value was “weak and very moderate inflammatory reaction”; the “tumor growth / development of periampular tumors” value is “periampular tumors developed”; the “tumor lesions detected (pathology)” value was “high-grade adenomas and carcinomas could be detected”.
Consider SN-38, for which the half-inhibitory concentration (IC50) in assay [1] (read-out: IC50) stood at 0.03 µM.
By Ki is commonly meant a dissociation constant, usually derived from enzyme kinetics or from competition with a known ligand. Take RO5-4864: the Ki in assay [3] is 23 nM.

Source of the values: patent US20110152252A1 (priority 2007, published 2011).
